Entries after “also recorded” stand apart in the source; their conditions may differ.
Columns and labels:
Format in all cases: cell-based, human
T84 cell monolayers [1] = experiment: Immunofluorescence labeling of adherens and tight junctions (E-cadherin, ZO-1)
Method: (§1) FIG. 5: E-cadherin-enhancing drugs prevent cytokine-induced disruption of epithelial adherens junctions. Confluent T84 cell monolayers were pretreated with either vehicle, or ECU (10 μM) for 24 hours. Afterwards, cells were exposed to a combination of TNFα (10 ng/ml) and IFNγ (50 ng/ml) with and without ECU for 48 h. Cells were fixed and structure of adherens was determined by immunolabeling of E-cadherin. Arrows point on disruption of normal E-cadherin labeling in cytokine-exposed, vehicle-treated cells.
as §1, with “FIG. 6:” for “FIG. 5:”, “epithelial tight” for “epithelial adherens”, “with or” for “with and”, “of tight junctions” for “of adherens”, “by ZO-1 immunolabeling.” for “by immunolabeling of E-cadherin.”, “normal ZO-1” for “normal E-cadherin”
In order to visualize structure of epithelial junctions, cultured colonic epithelial cell monolayers were fixed and permeabilized with 100% methanol at −20° C. Fixed samples were blocked for 60 min in HBSS containing 1% bovine serum albumin, followed by a 60-min incubation with primary antibodies against E-cadherin (BD Bioscience) and ZO-1 (Thermo-Fisher). Samples were then washed and incubated with Alexa-Fluor-488-conjugated donkey anti-rabbit and Alexa-Fluor-555—conjugated donkey anti-mouse secondary antibodies for 60 min, rinsed with blocking buffer, and mounted on slides with ProLong Antifade mounting reagent (Thermo-Fisher). Immunolabeled cell monolayers were imaged using a Leica SP8 confocal microscope (Wentzler, Germany). The Alexa Fluor 488 and 555 signals were acquired sequentially in frame-interlace mode to eliminate cross talk between channels. Images were processed using Adobe Photoshop. The images shown are representative of at least three experiments, with multiple images taken per slide. […]

T84 cell monolayers [2] = experiment: Cytokine (TNFα/IFNγ)-induced disruption of the epithelial barrier (TEER, FITC-dextran flux); settings: 10 μM pretreatment 24 h, then TNFα 10 ng/ml + IFNγ 50 ng/ml, 48 h
Method: (§2) Confluent T84 cell monolayers were pretreated with either vehicle, or ECU (10 μM) for 24 h. Afterwards, cells were exposed to a combination of TNFα (10 ng/ml) and IFNγ (50 ng/ml) with and without ECU. (A) TEER was measured at the indicated times. (B) FITC-dextran flux was examined after 48 h incubation with cytokines. Data is presented as mean ±SE (n=3); ***P<0.001.
as §2, with “ML327” for “ECU”, “hours.” for “h.”, “ML327.” for “ECU.”, “(n=3); **P<0.05,” for “(n=3);”
Transepithelial electrical resistance (TEER) of cultured T84, HT-29 and SK-C015 intestinal epithelial cell monolayers was measured using an EVOMX voltohmmeter (World Precision Instruments, Sarasota, Fla.). Cells were plated on collagen-coated transwell filters (pore size 3 μm, Thermo-Fisher). The resistance of cell-free collagen-coated filters was subtracted from each experimental point. An in vitro dextran flux assay was performed by a following commonly-used protocol. Intestinal epithelial cell monolayers growing on transwell filters were apically exposed to 1 mg/ml of FITC-labeled dextran (4,000 Da) in HEPES-buffered Hanks balanced salt solution (HBSS). After 120 min of incubation, HBSS samples were collected from the lower chamber, and FITC fluorescence intensity was measured using a Victor^3 V plate reader (Perkin Elmer, Waltham, Mass.) with excitation and emission wavelengths 485 and 544 nm, respectively. After subtracting the fluorescence of dextran-free HBSS the amount of FITC dextran translocated across the epithelial cell monolayer was calculated based on a calibration curve using Prism 5 software (GraphPad, La Jolla, Calif.).
A combination of two cytokines were selected: tumor necrosis factor alpha (TNFα, 10 ng/ml) and interferon-gamma (IFNγ, 50 ng/ml), which are known to compromise barrier integrity and trigger apical junction disassembly in cultured epithelial cell monolayers and intestinal mucosa in mice. Indeed, 48 hour incubation of well-differentiated T84 cell monolayers with TNFα and IFNγ caused a dramatic decrease in TEER (FIGS. 3A, 4A) and increase in transepithelial dextran flux (FIGS. 3B, 4B), which indicates the increase in barrier permeability. […] Next, it was examined if ECU protects epithelial adherens junctions (AJ) and tight junctions (TJ) from cytokine-induced disassembly. Immunofluorescence labeling of a specific AJ marker, E-cadherin, and a TJ marker, ZO-1, was used to visualize structure of different junctional complexes. […]

T84 cell monolayers [3] = experiment: Cytokine-induced apoptosis, immunoblotting of PARP, cleaved PARP, cleaved caspase-3; settings: 10 μM pretreatment 24 h, then IFNγ 50 ng/ml alone or with TNFα 10 ng/ml, 48 h
Method: FIG. 7: E-cadherin-enhancing drugs attenuate cytokine-induced cell death. Confluent T84 cell monolayers were pretreated with either vehicle, or ECU (10 μM) for 24 h. Afterwards, cells were exposed to either IFNγ (50 ng/ml) alone, or its combination with TNFα (10 ng/ml) with and without addition of ECU for additional 48h. Cell were lysed and levels of different apoptotic markers were determined by immunoblotting analysis.
To prepare total cell lysates, epithelial cell monolayers were scraped and homogenized using a Dounce homogenizer in RIPA buffer (20 mM Tris, 50 mM NaCl, 2 mM EDTA, 2 mM EGTA, 1% sodium deoxycholate, 1% Triton X-100 (TX-100), and 0.1% SDS, pH 7.4) containing protease inhibitor cocktail and phosphatase inhibitor cocktails 2 and 3 (Sigma-Aldrich). The obtained total cell lysates were cleared by centrifugation (20 min at 14,000×g), diluted with 2×SDS sample loading buffer and boiled. SDS-polyacrylamide gel electrophoresis was conducted using a standard protocol with equal amounts of total protein (10 or 20 μg) loaded per each lane. The separated proteins were transferred to nitrocellulose membranes and the membranes were blocked with 5% non-fat milk. […]

[4] = 10 μM pretreatment 24 h, then TNFα 10 ng/ml + IFNγ 50 ng/ml, 48 h

O=C(NCCCCc1ccncc1)c1cc(-c2ccco2)on1 [ECU]
Cytokine-induced adherens junction (AJ) disassembly, E-cadherin immunolabeling (T84 cell monolayers [1]; [4]): dramatic suppression of cytokine-induced disruption of adherens junctions; also recorded: completely prevented cytokine-induced junctional disassembly
Cytokine-induced tight junction (TJ) disassembly, ZO-1 immunolabeling (T84 cell monolayers [1]; [4]): inhibition of cytokine-induced tight junction disruption; also recorded: completely prevented cytokine-induced junctional disassembly
Normal AJ and TJ structure (T84 cell monolayers [1]; 10 μM, without cytokines): little effect
Cytokine-induced decrease in TEER (T84 cell monolayers [2]): prevents cytokine-induced disruption; also recorded: markedly attenuated
Cytokine-induced increase in transepithelial FITC-dextran flux (T84 cell monolayers [2]): prevents cytokine-induced disruption; also recorded: markedly attenuated
Cytokine-induced apoptosis (PARP cleavage, caspase-3 activation) (T84 cell monolayers [3]): prevented cytokine-induced PARP cleavage and caspase-3 activation

— US20220008402A1, “INCREASED E-CADHERIN EXPRESSION OR ACTIVITY FOR THE TREATMENT OF INFLAMMATORY DISEASES” (The Cleveland Clinic Foundation, priority 2020, published 2022)
